Data as given in publication PMC9252588 (Drug Design, Development and Therapy, 2022).

What was measured:
[1] = Pharmacokinetics of buspirone and metabolites with or without axitinib in rats; type: in vivo, Sprague–Dawley rats; details: increased to % of group A
[2] = system: buspirone 6′-hydroxylation (formation of 6′-OH buspirone); experiment: in vitro; details: rat, rat liver microsomes
[3] = system: buspirone N-dealkylation (formation of 1-PP); experiment: in vitro; details: rat, rat liver microsomes
[4] = in vivo; cited from earlier work
[5] = system: rat liver microsomes (RLMs); experiment: Enzymatic kinetics of axitinib inhibition of buspirone metabolism in RLMs; type: in vitro ADME
[6] = Pharmacokinetic pre-experiment: ritonavir before buspirone in rats; type: in vivo; details: ritonavir (positive inhibitor) administered before buspirone

With O=C1CC2(CCCC2)CC(=O)N1CCCCN1CCN(c2ncccn2)CC1 [buspirone, 8-(4-(4-(2-pyrimidinyl)-1-piperizinyl)butyl)-8-azaspiro(4,5)decane-7,9-dione] the “AUC(0-t), group B compared with group A” value [1] was 530%, the “Cmax, group B compared with group A” value [1] was 420% and the “Tmax, group B compared with group A” value [1] was 150%. For the same compound, the Km at 40 min [2] was 23 µM, the Km at 40 min [3] was 26.3 µM and the “absorbed in the alimentary canal” value [4] was roughly 100%.
For CNC(=O)c1ccccc1Sc1ccc2c(/C=C/c3ccccn3)n[nH]c2c1 [axitinib], the α value ([5]; buspirone 6′-hydroxylation) was 2.139 and the α value ([5]; buspirone N-dealkylation) was 5.434.
In the case of CC(C)c1nc(CN(C)C(=O)N[C@H](C(=O)N[C@@H](Cc2ccccc2)C[C@H](O)[C@H](Cc2ccccc2)NC(=O)OCc2cncs2)C(C)C)cs1 [ritonavir], the “blood concentrations of buspirone” value [6] is reported as “extremely high blood concentrations of buspirone” and the “symptoms compared with the control” value [6] is reported as “symptoms of inhibition of respiration and near-death”.
